Experiments:
[1] = biological target: T1, S33E/S37A β-catenin:β-TrCP interaction (Homo sapiens, UniProt P35222+Q9Y297, S33E/S37A); experiment: Pull down from HEK293T cells treated with compound; assay type: cell-based; conditions: 50 μM, 6 h
T1 construct: a ternary complex with the full-length S33E/S37A β-catenin and β-TrCP in cells; evaluated for their ability to pull down endogenous β-TrCP; expressed in transfected cells; host or cells: HEK293T (transient, FuGeneHD); β-TrCP endogenous
Description: Pull down from cells treated with compound: HEK293T cells were plated in 10 cm dishes at a density of 1.2 × 10^6 cells per plate. Cells were transfected 24 h later with 2.5 µg of a WT or S33E/S37A Myc/FLAG-tagged β-catenin expression construct using the transfection reagent FuGeneHD. […] Cells were then liberated from 10 cm dishes using a cell scraper, pelleted, washed with PBS, resuspended in an equal volume of hypotonic lysis buffer (20 mM HEPES 7.5, 5 mM KCl, 1.5 mM MgCl2, 2 mM DTT, 0.01% TX-100, protease and phosphatase inhibitors, 1% DMSO), and sheered by eight passages through 21 G and 25 G needles. Samples were then supplemented up to 150 mM NaCl and clarified by centrifugation. Thirty microliters of each lysate was incubated over 10 µL of anti-c-myc magnetic beads (Pierce, Catalog #PI88842) and incubated at room temp with rotation for 30 min. Beads were pelleted, washed twice with lysis buffer, and resuspended in SDS loading buffer. Samples were analyzed by western blot.

[2] = biological target: T1, S33E/S37A β-catenin:β-TrCP interaction; experiment: Lysate pulldown with recombinant β-catenin (HEK293T lysate); conditions: anti-myc pulldown
Description: Lysate pulldown with recombinant β-catenin: HEK293T cells were lysed by freeze thaw in lysis buffer (1× PBS, 2 mM DTT, 0.01% Triton X-100, proteases inhibitors (Sigma, P2714 and 11836170001), phosphatase inhibitors (Sigma, P5726 and P0044), 5 nM Calyculin A (Sigma, C5552)) at 85 µL of buffer to 1 × 10^6 cells. Lysates were clarified by centrifugation at 20,000 × g for 20 min at 4 °C and the supernatant was collected for subsequent use. Purified Myc/FLAG-tagged wild-type β-catenin protein at 2 µM was pretreated with 1 µM GSK3β (EMD Millipore, 14-306), 50 nM Axin (Enzo Life Sciences, ENZ-PRT130-0020), 200 nM CK1α (Life Technologies, PV3850), and 2 mM ATP at 30 °C for 60 min. This phosphorylated β-catenin, unphosphorylated WT β-catenin, or S33E/S37A β-catenin were each diluted into lysate to 100 nM, at the indicated compound concentrations, at a final DMSO concentration of 1% DMSO. Thirty-five microliters of these mixtures were incubated over 10 µL of anti-c-myc magnetic beads (Pierce, Catalog #PI88842), with rotation, at room temperature for 2 h. Beads were then pelleted, washed twice with 200 µL cold wash buffer (1×PBS, 2 mM DTT, 0.01% TX-100, 1% DMSO) containing compound at the same incubation concentration. Washed beads were resuspended in 30 µL SDS loading dye and analyzed by western analysis.

T1 sequence (P35222 whole entry S33E/S37A): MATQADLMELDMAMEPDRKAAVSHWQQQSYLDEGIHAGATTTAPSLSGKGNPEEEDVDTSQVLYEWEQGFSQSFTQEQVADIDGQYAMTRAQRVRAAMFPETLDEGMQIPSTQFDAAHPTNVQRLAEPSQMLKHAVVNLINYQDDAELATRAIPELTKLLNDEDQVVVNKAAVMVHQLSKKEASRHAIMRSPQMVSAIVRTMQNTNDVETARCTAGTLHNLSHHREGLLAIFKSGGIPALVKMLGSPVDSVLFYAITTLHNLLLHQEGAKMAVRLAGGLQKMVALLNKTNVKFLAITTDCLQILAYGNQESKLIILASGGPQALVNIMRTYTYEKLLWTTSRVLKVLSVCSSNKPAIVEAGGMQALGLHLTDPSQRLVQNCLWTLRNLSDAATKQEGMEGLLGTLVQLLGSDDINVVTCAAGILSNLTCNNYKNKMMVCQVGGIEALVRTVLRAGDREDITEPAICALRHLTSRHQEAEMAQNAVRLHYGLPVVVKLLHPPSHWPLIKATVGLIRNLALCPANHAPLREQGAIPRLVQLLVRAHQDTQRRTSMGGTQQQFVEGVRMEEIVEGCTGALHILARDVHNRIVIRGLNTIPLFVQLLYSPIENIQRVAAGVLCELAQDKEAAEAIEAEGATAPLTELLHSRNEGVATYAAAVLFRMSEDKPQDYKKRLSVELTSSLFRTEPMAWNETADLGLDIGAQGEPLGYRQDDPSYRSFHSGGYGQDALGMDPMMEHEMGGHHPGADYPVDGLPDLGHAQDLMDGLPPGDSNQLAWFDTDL
T1 sequence (Q9Y297 whole entry, stated change not applied): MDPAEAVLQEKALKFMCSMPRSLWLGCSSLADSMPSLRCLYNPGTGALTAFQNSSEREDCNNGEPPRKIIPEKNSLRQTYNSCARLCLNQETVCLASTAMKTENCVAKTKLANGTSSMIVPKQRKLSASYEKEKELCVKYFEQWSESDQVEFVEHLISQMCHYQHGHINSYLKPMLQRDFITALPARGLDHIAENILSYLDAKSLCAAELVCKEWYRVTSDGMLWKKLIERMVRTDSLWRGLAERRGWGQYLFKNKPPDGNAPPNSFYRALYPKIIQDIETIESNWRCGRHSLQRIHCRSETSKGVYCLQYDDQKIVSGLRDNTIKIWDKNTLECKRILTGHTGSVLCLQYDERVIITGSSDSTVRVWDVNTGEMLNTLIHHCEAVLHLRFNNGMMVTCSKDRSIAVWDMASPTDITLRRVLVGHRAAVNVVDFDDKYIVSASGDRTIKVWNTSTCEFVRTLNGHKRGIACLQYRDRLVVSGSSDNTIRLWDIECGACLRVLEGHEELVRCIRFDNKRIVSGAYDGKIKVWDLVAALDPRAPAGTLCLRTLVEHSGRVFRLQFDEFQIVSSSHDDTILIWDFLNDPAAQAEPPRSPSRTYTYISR
T1 sequence (P63208 whole entry partner): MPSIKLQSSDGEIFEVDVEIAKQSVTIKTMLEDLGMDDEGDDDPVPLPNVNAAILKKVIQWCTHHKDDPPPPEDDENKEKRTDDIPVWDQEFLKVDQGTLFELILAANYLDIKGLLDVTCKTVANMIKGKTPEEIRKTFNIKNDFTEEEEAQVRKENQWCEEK

interaction of S33E/S37A β-catenin with endogenous β-TrCP in cell lysate [2]: dose-dependent interaction
SMILES: N#Cc1cccc2c1CN(C(=O)c1c(Sc3c(Cl)cccc3Cl)cc(C(F)(F)F)[nH]c1=O)C2 [NRX-252114]
S33E/S37A β-catenin:β-TrCP interaction in transfected cells [1]: robust S33E/S37A β-catenin:β-TrCP interaction

Source: paper PMC6441019, “Prospective discovery of small molecule enhancers of an E3 ligase-substrate interaction” (Nature Communications, 2019)
